In patent publication US6855536B2, “Materials and methods for the enhancement of effective root nodulation in legumes” (priority 2000, dated 2005):
“Also recorded” adds a separate entry of the source.

Columns and labels:
nolA-lacZ fusion = assay: nolA-lacZ (nolA1,2,3-lacZ) fusion β-galactosidase assay in B. japonicum; type: cell-based, Bradyrhizobium japonicum; details: for Induction of nolA expression (in words): B. japonicum harboring nolA-lacZ fusion
Experimental: (§1) Bacterial Stains, plasmids and culture conditions. For routine bacterial growth, B. japonicum cells were maintained on RDY medium (So, J. -S. et al. [1987] Mol. Gen. Genet. 207:15-23). Bacteria were grown in minimal medium (Bergensen, F. J. [1961] Aust. J. Biol. Sci. 14:349-360) for β-galactosidase activity. As required, antibiotics were used at the following concentrations, Cm (30 μg/ml), Sm (100 μg/ml), Sp (100 μg/ml), Tc (100 μg/ml). The B. japonicum strains used in this study were Bj110-42, BJAlac12, BJAlac23, BJAlac13 and BJ110-1248-1, ZB977, SL101 and Bj110-573. These strains harbored the following translational fusions; BJ110-1248-1 (nodD2-lacZ, plasmid pRJ1248, Dockendorff et al. [1994] Mol. Plant-Microbe Interact. 7:596-602), ZB977 (nodY-lacZ, plasmid pZB32, Banfalvi et al. [1988] Mol. Gen. Genet. 214:420-424), SL101 (npt-lacZ, Yuen, J. P.-Y and G. Stacey [1996] Mol. Plant-Microbe Interact. 9:424-428), and Bj110-573 (nodC-lacZ, chromosomally integrated fusion, Dockendorff et al. [1994] Mol. Plant-Microbe Interact 7:596-602). Strains Bj110-42, BJAlac23, BJAlac12, BJAlac13 harbored nolA-lacZ translational fusions encoded on plasmids pBGALac1, pNMAlac23, pNMAlac13, pNMAlac12 respectively (Garcia et al. [1996] Mol. Plant-Microbe Interact. 9:625-635; Loh et al. [1999] J. Bacteriol. 181:1544-1554). Plasmid pNMAlac23 contained mutations to ATG2 and ATG3 of nolA and allowed the specific expression of NolA1-lacZ. In contrast, plasmids pNMAlac13 (mutations to ATG1 and ATG3) and pNMAlac12 (mutation to ATG1 and ATG3, Loh et al. [1999] J. Bacteriol. 181:1544-1554) only expressed NolA2-lacZ and NolA3-lacZ, respectively.
Typically, B. japonicum cells are found in high population density in commercial inoculants. To determine if the bacterial nolA inducer was present in commercial inoculant, three soybean inoculants from two commercially available sources were extracted with butanol, and these extracts analyzed for their ability to induce the nolA-lacZ fusions.
As shown in Tables 2-3 and FIG. 11C, an inducer of nolA-lacZ and nodD2-lacZ expression was detected in conditioned medium from B. japonicum cultures grown to a high population density. […] The nolA inducer present in the conditioned medium was lost after dialysis using a membrane with a cutoff at 3 kDa (Fisher Scientific, Pittsburgh, Pa.).

nodY-lacZ = nodY-lacZ fusion induction by genistein in B. japonicum; type: cell-based, Bradyrhizobium japonicum; details: for Effect on nodY-lacZ expression: 0.025 μM genistein for five hours, with or without 500 μM FeCl3
Experimental: as §1
This view is supported experimentally by the following two results.
The levels of nod gene expression were also found to be affected by IND-1.

CDF production = CDF production in B. japonicum cultures grown with iron; type: cell-based, Bradyrhizobium japonicum; details: Fe^3+ added to B. japonicum cultures
nodC-lacZ = nodC-lacZ fusion induction by genistein in B. japonicum Bj110-573; type: cell-based, Bradyrhizobium japonicum; details: 0.025 μM genistein, 5 hours; cells harvested at high population densities (A600=1.62 or 3.22)
Experimental: as §1, with “Plasmid pNMAlac23 contained mutations to ATG2 and ATG3 of nolA and allowed the specific expression of NolA1-lacZ. In contrast, plasmids pNMAlac13 (mutations to ATG1 and ATG3) and pNMAlac12 (mutation to ATG1 and ATG3, Loh et al. [1999] J. Bacteriol. 181:1544-1554) only expressed NolA2-lacZ and NolA3-lacZ, respectively.” left out

NolA1-lacZ = NolA1-lacZ fusion β-galactosidase assay in B. japonicum; type: cell-based, Bradyrhizobium japonicum; details: NolA3-lacZ fusions compared
Experimental: as §1, with “Strains Bj110-42, BJAlac23, BJAlac12, BJAlac13 harbored nolA-lacZ translational fusions encoded on plasmids pBGALac1, pNMAlac23, pNMAlac13, pNMAlac12 respectively (Garcia et al. [1996] Mol. Plant-Microbe Interact. 9:625-635; Loh et al. [1999] J. Bacteriol. 181:1544-1554). Plasmid pNMAlac23 contained mutations to ATG2 and ATG3 of nolA and allowed the specific expression of NolA1-lacZ. In contrast, plasmids pNMAlac13 (mutations to ATG1 and ATG3) and pNMAlac12 (mutation to ATG1 and ATG3, Loh et al. [1999] J. Bacteriol. 181:1544-1554) only expressed NolA2-lacZ and NolA3-lacZ, respectively.” left out
As shown in Tables 2-3 and FIG. 11C, an inducer of nolA-lacZ and nodD2-lacZ expression was detected in conditioned medium from B. japonicum cultures grown to a high population density. […]

[1] = system: nodulation of soybean by B. japonicum; assay: Soybean nodulation plant test in growth pouches; type: in vivo, Glycine max; details: for Effect on nodulation of soybean (in words): B. japonicum cells pretreated 1 h, 10^7 cells per root, nodules counted 21 days post-inoculation
Experimental: The significance of nod gene repression by both IND-1 and the quorum factor was also investigated in plant tests. Seeds of Glycine maxcv Essex were surface sterilized, placed in sterile growth pouches (Mega International, MN) and cultivated as described by Nieuwkoop et al. (Nieuwkoop et al. [1987] J. Bacteriol. 169:2631-2638). Each seedling was inoculated with 10^7 B. japonicum cells. Prior to inoculation of the roots, B. japonicum cells were incubated for 1 h with concentrated, conditioned medium that had been sterilized by filtration through a […] filter (Millipore, Bedford, Mass.). The conditioned medium was used at a final concentration of 10 μl per 1 ml of culture. At the time of inoculation, the location of the root tip was marked on the outside of the plastic growth pouch. Plants were watered with nitrogen free nutrient solution (Wacek and Brill [1976] Crop Sci. 15:519-523). At 21 days post-inoculation, the number of nodules on each root both above and below the root tip mark was recorded.

[2] = system: nodule occupancy by the NwsB mutant; assay: Nodule occupancy competition assay, NwsB mutant versus wild-type; type: in vivo, Glycine max; details: 25 μM BEHP; NwsB mutant and USDA110 at different ratios; 21 days post inoculation
Experimental: Different ratios of B. japonicum USDA110 and B. japonicum NwsB mutant were innoculated on soybean plants grown in growth pouches. At the time of innoculation, the root tip (RT) mark was noted on the outside of the pouches. Nodules were extracted 21 days post innoculation and the extracts were plated on RDY plates. Single colonies were picked and tested for streptomycin resistance (a marker for the NwsB mutant). (A) is above RT at time of innoculation; (B) below RT at time of innoculation.
We have generated, by recombinant means, mutations in the nwsB gene. The NwsB mutant appears to be defective in the recognition of the quorum signal and we have performed plant tests with the mutant in competition assays with the wild-type bacteria. In these assays, the effect of IND-1 (BEHP) on the ability of the NwsB mutant to nodulate soybean in the presence of wild-type bacteria (at different cell ratios) was examined. […] Nodule occupancy was scored both above (treated area) and below (new root growth) the root tip mark at the time of inoculation. […] These studies were conducted using 25 μM levels of BEHP.

[3] = listed as phthalic acid bis-(2-ethyl-hexyl) ester

[Cl][Fe]([Cl])[Cl] [Fe^3+, FeCl3]
Effect on nolA expression at high culture densities (nolA-lacZ fusion; increasing concentrations of FeCl3 for five hours): significantly reduced the expression of nolA expression | Effect on nodY-lacZ expression (nodY-lacZ): corresponding increase in nodY-lacZ expression | Effect on nodY-lacZ expression (nodY-lacZ; listed as FeCl3): increase in the expression of a nodY-lacZ fusion protein | Effect on CDF production (CDF production): inhibit CDF production

O=c1c(-c2ccc(O)cc2)coc2cc(O)cc(O)c12 [genistein, reference compound]
Induction of nolA expression (in words) (nolA-lacZ fusion): failed to induced nolA expression | Induction of nodY-lacZ, β-galactosidase activity (nodY-lacZ; 0.05 μM genistein for 5 h, with or without CM (A600 = 1.0), CPRG substrate, mean of two ± SD): 366 ± 11 U | nodC-lacZ induction by genistein (nodC-lacZ): Little or no nodC induction

O=c1c(-c2ccc(O)cc2)coc2cc(O)ccc12 [daidzein, reference compound]
Induction of nolA expression (in words) (nolA-lacZ fusion): failed to induced nolA expression

CCCCC(CC)COC(=O)c1ccccc1C(=O)OCC(CC)CCCC (stereo not shown) [IND-1, phthalic acid bis-(2-ethyl-hexyl) ester]
Induction of nolA expression (in words) (nolA-lacZ fusion): active on B. japonicum nolA-lacZ fusions; also recorded: capable of inducing nolA | Induction of nolA expression (in words) (nolA-lacZ fusion; [3]): potent inducer of nolA; also recorded: strong inducer of NolA expression | Which NolA form is affected (NolA1, NolA2, NolA3) (NolA1-lacZ): affect only NolA1 expression | Effect on nod gene (nodY-lacZ) induction by genistein (in words) (nodY-lacZ; B. japonicum at low population density, IND-1 in USDA110, USDA76, USDA31): reduced nodY-lacZ induction by genistein | Effect on nodulation of soybean (in words) [1]: reduced nodulation efficiency | Effect on nodulation of soybean (in words) [1, 3]: inhibits nodulation | Nodule phenotype in the presence of BEHP ([1]; UV treated USDA61 A2 73 cells inoculated onto soybean roots): delayed nodule phenotype | Percentage of nodules occupied by the NwsB mutant [2]: increase the percentage of nodules that were occupied by the NwsB mutant
